Drawing on PubChem BioAssay (NCI), this text covers TGI for 12 molecules.

Test systems include A549 NSCLC; EKVX NSCLC; HCC-2998 colon; HOP-62 NSCLC; IGROV1 ovarian; M14 melanoma; MCF7 breast; NCI-H23 lung; PC-3 prostate; SF-295 CNS; SN12C renal; U251 CNS; HL-60(TB) leukemia.
Assay in all cases: NCI-60 cell line screen, 48 h

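Step 1: Grow cells in 96-well plates. Step 2: Expose to compound for 48 hours at 5 concentrations. Step 3: Interpolate endpoints linearly; if unreached, use highest concentration. TGI: total growth inhibition.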

Regarding `OCCCCn1cc(Cn2ncc3c(SCc4ccccc4)ncnc32)nn1`, the TGI in the assay with A549 NSCLC, in the assay with EKVX NSCLC, in the assay on HCC-2998 colon, in the assay with HOP-62 NSCLC, in the assay with IGROV1 ovarian and in the assay on M14 melanoma was greater than 100 µM each time. The TGI in the assay on MCF7 breast, in the assay on NCI-H23 lung, in the assay on PC-3 prostate, with SF-295 CNS, with SN12C renal and in the assay on U251 CNS was greater than 100 µM each time.

In the case of `O=c1[nH]c(=O)n(C2OC(CO)C(O)C2O)cc1OCCc1ccccc1` (configuration not stated), the TGI in the assay on A549 NSCLC, in the assay on EKVX NSCLC, in the assay with HCC-2998 colon, in the assay on HL-60(TB) leukemia, in the assay on HOP-62 NSCLC and with IGROV1 ovarian was greater than 100 µM throughout. The TGI with M14 melanoma, in the assay with MCF7 breast, in the assay on NCI-H23 lung, in the assay on PC-3 prostate, with SF-295 CNS and in the assay with SN12C renal was greater than 100 µM each time.

As for `O=C1N(CN2CCOCC2)CN(CN2CCOCC2)C(=O)N1Cc1ccccc1`, the TGI was greater than 100 µM in the assay on A549 NSCLC; greater than 100 µM in the assay with EKVX NSCLC; greater than 100 µM in the assay on HCC-2998 colon; greater than 100 µM in the assay on HOP-62 NSCLC; 64.9 µM in the assay on IGROV1 ovarian; 33.3 µM in the assay on M14 melanoma. Moreover, the TGI was 82.6 µM with MCF7 breast; 38.9 µM with NCI-H23 lung; greater than 100 µM with PC-3 prostate; greater than 100 µM with SF-295 CNS; 48.6 µM in the assay on SN12C renal; 56.8 µM in the assay on U251 CNS.

For the molecule `Fc1ccc(NCn2nc(COc3ccccc3Cl)n(/N=C/c3ccc(-c4ccc(Cl)cc4Cl)o3)c2=S)cc1Cl`, the TGI with EKVX NSCLC is greater than 100 µM; in the assay on HL-60(TB) leukemia, 48.9 µM; with HOP-62 NSCLC it was greater than 100 µM; with IGROV1 ovarian, greater than 100 µM; in the assay with M14 melanoma, greater than 100 µM; in the assay on MCF7 breast, greater than 100 µM. The TGI in the assay on NCI-H23 lung is greater than 100 µM; in the assay on PC-3 prostate, greater than 100 µM; in the assay with SF-295 CNS, greater than 100 µM; in the assay on U251 CNS, 75.2 µM.

`Cc1nn(-c2ccccc2)c2c1C(c1cc3ccccc3nc1Cl)NC(=S)N2` (configuration not stated): the TGI with A549 NSCLC was greater than 100 µM; in the assay on EKVX NSCLC, greater than 100 µM; with HL-60(TB) leukemia it was greater than 100 µM; with HOP-62 NSCLC, greater than 100 µM; with IGROV1 ovarian, 37.6 µM; with M14 melanoma, greater than 100 µM. Moreover, the TGI is greater than 100 µM with MCF7 breast; greater than 100 µM in the assay on NCI-H23 lung; greater than 100 µM in the assay on PC-3 prostate; greater than 100 µM with SF-295 CNS; greater than 100 µM in the assay on SN12C renal; 83 µM with U251 CNS.

For `CCn1c(-c2ccccc2)nc2c1C(=O)c1ccccc1C2=O`, the TGI was greater than 100 µM in the assay on A549 NSCLC; 51.4 µM with HCC-2998 colon; greater than 100 µM in the assay with HL-60(TB) leukemia; greater than 100 µM with HOP-62 NSCLC; 79.8 µM in the assay on IGROV1 ovarian; 54 µM in the assay with M14 melanoma. The TGI in the assay with MCF7 breast was greater than 100 µM; with NCI-H23 lung it was greater than 100 µM; in the assay with PC-3 prostate it was 64.3 µM; in the assay with SF-295 CNS it was 62.9 µM; in the assay with SN12C renal, greater than 100 µM; with U251 CNS, greater than 100 µM.

Take `O=Cc1[nH]c(=O)[nH]c(=O)c1CCl`: the TGI in the assay with A549 NSCLC is greater than 100 µM; in the assay on EKVX NSCLC, greater than 100 µM; with HCC-2998 colon it was greater than 100 µM; in the assay on HL-60(TB) leukemia, greater than 72.9 µM; in the assay with HOP-62 NSCLC, greater than 100 µM; in the assay with IGROV1 ovarian, greater than 100 µM. The TGI with MCF7 breast, with NCI-H23 lung, in the assay on PC-3 prostate, with SF-295 CNS, with SN12C renal and with U251 CNS was greater than 100 µM in each case.

`O=C(O)c1cncc(C(=O)O)c1`: the TGI with A549 NSCLC, in the assay on EKVX NSCLC, in the assay with HL-60(TB) leukemia, with HOP-62 NSCLC, in the assay with IGROV1 ovarian and in the assay on M14 melanoma was greater than 100 µM each time. In addition, the TGI in the assay on MCF7 breast, in the assay on NCI-H23 lung, with PC-3 prostate, with SF-295 CNS, with SN12C renal and in the assay on U251 CNS was greater than 100 µM in each case.

For the molecule `CC(=O)N1C(C(=O)NNc2ccccc2)CSC1c1ccccc1` (configuration not stated), the TGI in the assay on A549 NSCLC, in the assay with EKVX NSCLC, in the assay on HCC-2998 colon, with HOP-62 NSCLC, in the assay on IGROV1 ovarian and with M14 melanoma was greater than 100 µM throughout. Besides, the TGI with MCF7 breast, in the assay with NCI-H23 lung, in the assay on PC-3 prostate, with SF-295 CNS, in the assay on SN12C renal and in the assay on U251 CNS was greater than 100 µM each time.

For the molecule `CC(=O)OCC1OC(n2c3c(cc(C#N)c2=S)CCCCCC3)C(OC(C)=O)C(OC(C)=O)C1OC(C)=O` (configuration not stated), the TGI in the assay with A549 NSCLC, with HCC-2998 colon, with HL-60(TB) leukemia, in the assay with HOP-62 NSCLC, in the assay on IGROV1 ovarian and with M14 melanoma was greater than 100 µM throughout. Further, the TGI in the assay on MCF7 breast, in the assay on NCI-H23 lung, in the assay on PC-3 prostate, with SF-295 CNS, in the assay on SN12C renal and in the assay with U251 CNS was greater than 100 µM throughout.

As to `Cc1nc(N)c(N2CCN(Cc3ccccc3)CC2)c(=O)[nH]1`, the TGI with A549 NSCLC, in the assay on EKVX NSCLC, in the assay on HCC-2998 colon, in the assay with HL-60(TB) leukemia, in the assay with HOP-62 NSCLC and in the assay with M14 melanoma was greater than 100 µM in each case. The TGI in the assay with MCF7 breast, with NCI-H23 lung, in the assay with PC-3 prostate, in the assay with SF-295 CNS, with SN12C renal and in the assay on U251 CNS was greater than 100 µM in each case.

Consider `Cn1c(=O)c2nc3nnc(C#N)c(N)n3c2n(C)c1=O`, for which the TGI with A549 NSCLC, with EKVX NSCLC, in the assay on HCC-2998 colon, in the assay with HL-60(TB) leukemia, in the assay with HOP-62 NSCLC and in the assay on IGROV1 ovarian was greater than 100 µM each time. Also, the TGI in the assay on M14 melanoma, in the assay with MCF7 breast, with PC-3 prostate, in the assay with SF-295 CNS, with SN12C renal and with U251 CNS was greater than 100 µM each time.
